Among the data in patent publication US9670227B2, “Thienopyrimidine derivatives, a process for their preparation and pharmaceutical compositions containing them” (LES LABORATOIRES SERVIER, priority 2013, dated 2017) are IC50 values, retold here.

One assay concerns the target Mcl-1 protein (UniProtKB primary accession number: Q07820) (Homo sapiens, UniProt Q07820). The assay can be described thus: Inhibition of Mcl-1 by fluorescence polarisation, Method 1. The format is binding. The following applies: fluorescence polarisation test; Method 2 values are underlined in the patent (underlining not visible here); read-out: IC50 (M) Mcl-1 FP. A digest of the protocol: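 FP competition, 11-point compound titration in 5% final DMSO; protein and labelled probe at 5 nM and 1 nM final in HEPES/NaCl/Tween 20 buffer, pH 7.4.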
For orientation: In fluorescence polarisation assays a small probe gives low polarisation when free and higher when bound to something large.

Assay [1] relates to H929 multiple myeloma tumour line. The assay can be described thus: In vitro cytotoxicity, Microculture Tetrazolium Assay. The format is cell-based. Conditions: H929 cells, 48 hours exposure, MTT, read-out: IC50 (μM) MTT H929. How it is done: The cytotoxicity studies were carried out on the H929 multiple myeloma tumour line.
The cells are distributed onto microplates and exposed to the test compounds for 48 hours.

Structures are written as SMILES. Read-outs that look alike come from different tables or passages of the source.

Sequence of Mcl-1 protein (Q07820 whole entry): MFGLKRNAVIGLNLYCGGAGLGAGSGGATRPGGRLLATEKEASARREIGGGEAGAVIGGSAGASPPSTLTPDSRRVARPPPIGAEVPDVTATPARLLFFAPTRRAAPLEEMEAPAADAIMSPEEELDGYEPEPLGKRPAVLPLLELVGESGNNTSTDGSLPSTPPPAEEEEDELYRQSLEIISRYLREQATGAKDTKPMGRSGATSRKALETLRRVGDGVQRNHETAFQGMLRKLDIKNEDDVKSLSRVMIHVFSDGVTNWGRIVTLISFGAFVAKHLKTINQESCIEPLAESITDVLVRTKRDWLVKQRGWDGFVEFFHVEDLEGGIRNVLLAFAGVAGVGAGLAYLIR

As to `Cc1c(-c2c(-c3ccco3)sc3ncnc(OC(Cc4ccccc4OCc4c5ccccc5nn4C)C(=O)O)c23)ccc(OCCN2CCN(C)CC2)c1Cl` [Example 282, (2R)-2-{[(5Sa)-5-{3-chloro-2-methyl-4-[2-(4-methylpiperazin-1-yl)ethoxy]phenyl}-6-(furan-2-yl)thieno[2,3-d]pyrimidin-4-yl]oxy}-3-{2-[(2-methyl-2H-indazol-3-yl)methoxy]phenyl}propanoic acid], the IC50 on Mcl-1 protein stood at 4e-08 M; in assay [1] (Homo sapiens, NCI-H929, 48 h) it was 0.601 µM.

As to `Cc1c(-c2c(-c3ccco3)sc3ncnc(OC(Cc4ccccc4OCc4ncc(-c5ccccc5)cn4)C(=O)O)c23)ccc(OCCN2CCN(C)CC2)c1Cl` [Example 283, (2R)-2-{[(5Sa)-5-{3-chloro-2-methyl-4-[2-(4-methylpiperazin-1-yl)ethoxy]phenyl}-6-(furan-2-yl)thieno[2,3-d]pyrimidin-4-yl]oxy}-3-{2-[(5-phenylpyrimidin-2-yl)methoxy]phenyl}propanoic acid], the IC50 stood at 2.6e-08 M on Mcl-1 protein and 0.25 µM in assay [1] (Homo sapiens, NCI-H929, 48 h).

As to `Cc1c(-c2c(-c3ccco3)sc3ncnc(OC(Cc4ccccc4OCc4nccc5ccccc45)C(=O)O)c23)ccc(OCCN2CCN(C)CC2)c1Cl` [Example 284, (2R)-2-{[(5Sa)-5-{3-chloro-2-methyl-4-[2-(4-methylpiperazin-1-yl)ethoxy]phenyl}-6-(furan-2-yl)thieno[2,3-d]pyrimidin-4-yl]oxy}-3-[2-(isoquinolin-1-ylmethoxy)phenyl]propanoic acid], the IC50 on Mcl-1 protein is 4.8e-08 M; in assay [1] (Homo sapiens, NCI-H929, 48 h) it was 1.79 µM.

Regarding `Cc1c(-c2c(-c3ccco3)sc3ncnc(OC(Cc4ccccc4OCc4ncccc4Cl)C(=O)O)c23)ccc(OCCN2CCN(C)CC2)c1Cl` [Example 285, (2R)-2-{[(5Sa)-5-{3-chloro-2-methyl-4-[2-(4-methylpiperazin-1-yl)ethoxy]phenyl}-6-(furan-2-yl)thieno[2,3-d]pyrimidin-4-yl]oxy}-3-{2-[(3-chloropyridin-2-yl)methoxy]phenyl}propanoic acid], the IC50 at Mcl-1 protein worked out at 1.7e-08 M; in assay [1] (Homo sapiens, NCI-H929, 48 h), 0.588 µM.

As for `Cc1c(-c2c(-c3ccco3)sc3ncnc(OC(Cc4ccccc4OCc4ncccn4)C(=O)O)c23)ccc(OCCN2CCN(C)CC2)c1Cl` [Example 286, (2R)-2-{[(5Sa)-5-{3-chloro-2-methyl-4-[2-(4-methylpiperazin-1-yl)ethoxy]phenyl}-6-(furan-2-yl)thieno[2,3-d]pyrimidin-4-yl]oxy}-3-[2-(pyrimidin-2-ylmethoxy)phenyl]propanoic acid], the IC50 at Mcl-1 protein amounted to 7.6e-09 M; in assay [1] (Homo sapiens, NCI-H929, 48 h), 0.508 µM.

With `Cc1c(-c2c(-c3ccco3)sc3ncnc(OC(Cc4ccccc4OCc4nccn4C)C(=O)O)c23)ccc(OCCN2CCN(C)CC2)c1Cl` [Example 287, (2R)-2-{[(5Sa)-5-{3-chloro-2-methyl-4-[2-(4-methylpiperazin-1-yl)ethoxy]phenyl}-6-(furan-2-yl)thieno[2,3-d]pyrimidin-4-yl]oxy}-3-{2-[(1-methyl-1H-imidazol-2-yl)methoxy]phenyl}propanoic acid], the IC50 at Mcl-1 protein was determined as 8.3e-09 M; in assay [1] (Homo sapiens, NCI-H929, 48 h), 0.667 µM.

With `Cc1c(-c2c(-c3ccco3)sc3ncnc(OC(Cc4ccccc4OCCC(F)(F)F)C(=O)O)c23)ccc(OCCN2CCN(C)CC2)c1Cl` [Example 288, (2R)-2-{[(5Sa)-5-{3-chloro-2-methyl-4-[2-(4-methylpiperazin-1-yl)ethoxy]phenyl}-6-(furan-2-yl)thieno[2,3-d]pyrimidin-4-yl]oxy}-3-[2-(3,3,3-trifluoropropoxy)phenyl]propanoic acid], the IC50 is 1.2e-08 M on Mcl-1 protein and 0.086 µM in assay [1] (Homo sapiens, NCI-H929, 48 h).

With `Cc1c(-c2c(-c3ccco3)sc3ncnc(OC(Cc4ccccc4OCCc4ccccn4)C(=O)O)c23)ccc(OCCN2CCN(C)CC2)c1Cl` [Example 289, (2R)-2-{[(5Sa)-5-{3-chloro-2-methyl-4-[2-(4-methylpiperazin-1-yl)ethoxy]phenyl}-6-(furan-2-yl)thieno[2,3-d]pyrimidin-4-yl]oxy}-3-{2-[2-(pyridin-2-yl)ethoxy]phenyl}propanoic acid], the IC50 at Mcl-1 protein is 1.4e-08 M; in assay [1] (Homo sapiens, NCI-H929, 48 h), 0.18 µM.

Regarding `Cc1c(-c2c(-c3ccco3)sc3ncnc(OC(Cc4ccccc4OCCOc4ccccc4)C(=O)O)c23)ccc(OCCN2CCN(C)CC2)c1Cl` [Example 291, (2R)-2-{[(5Sa)-5-{3-chloro-2-methyl-4-[2-(4-methylpiperazin-1-yl)ethoxy]phenyl}-6-(furan-2-yl)thieno[2,3-d]pyrimidin-4-yl]oxy}-3-[2-(2-phenoxyethoxy)phenyl]propanoic acid], the IC50 was 3.8e-08 M at Mcl-1 protein and 1.3 µM in assay [1] (Homo sapiens, NCI-H929, 48 h).

Take `Cc1c(-c2c(-c3ccco3)sc3ncnc(OC(Cc4ccccc4OCCOCc4ccccc4)C(=O)O)c23)ccc(OCCN2CCN(C)CC2)c1Cl` [Example 292, (2R)-3-{2-[2-(benzyloxy)ethoxy]phenyl}-2-{[(5Sa)-5-{3-chloro-2-methyl-4-[2-(4-methylpiperazin-1-yl)ethoxy]phenyl}-6-(furan-2-yl)thieno[2,3-d]pyrimidin-4-yl]oxy}propanoic acid]: the IC50 at Mcl-1 protein was 9.3e-09 M; in assay [1] (Homo sapiens, NCI-H929, 48 h), 0.192 µM.

With `Cc1c(-c2c(-c3ccco3)sc3ncnc(OC(Cc4ccccc4OCc4cn(Cc5ccccc5)nn4)C(=O)O)c23)ccc(OCCN2CCN(C)CC2)c1Cl` [Example 294, (2R)-3-{2-[(1-benzyl-1H-1,2,3-triazol-4-yl)methoxy]phenyl}-2-{[(5Sa)-5-{3-chloro-2-methyl-4-[2-(4-methylpiperazin-1-yl)ethoxy]phenyl}-6-(furan-2-yl)thieno[2,3-d]pyrimidin-4-yl]oxy}propanoic acid], the IC50 on Mcl-1 protein was 1.6e-08 M; in assay [1] (Homo sapiens, NCI-H929, 48 h), 0.886 µM.

In the case of `Cc1c(-c2c(-c3ccco3)sc3ncnc(OC(Cc4ccccc4OCc4cnnn4Cc4ccccc4)C(=O)O)c23)ccc(OCCN2CCN(C)CC2)c1Cl` [Example 295, (2R)-3-{2-[(1-benzyl-1H-1,2,3-triazol-5-yl)methoxy]phenyl}-2-{[(5Sa)-5-{3-chloro-2-methyl-4-[2-(4-methylpiperazin-1-yl)ethoxy]phenyl}-6-(furan-2-yl)thieno[2,3-d]pyrimidin-4-yl]oxy}propanoic acid], the half-maximal inhibitory concentration (IC50) at Mcl-1 protein stood at 4.7e-09 M; in assay [1] (Homo sapiens, NCI-H929, 48 h) it was 0.021 µM.

Turning to `COc1ccccc1CC(Oc1ncnc2sc(-c3ccco3)c(-c3ccc(OCC4CCCN4C)c(Cl)c3C)c12)C(=O)O` [Example 298, (2R)-2-{[(5Sa)-5-(3-chloro-2-methyl-4-{[(2S)-1-methylpyrrolidin-2-yl]methoxy}phenyl)-6-(furan-2-yl)thieno[2,3-d]pyrimidin-4-yl]oxy}-3-(2-methoxyphenyl)propanoic acid], the IC50 amounted to 1.2e-08 M at Mcl-1 protein and 1.14 µM in assay [1] (Homo sapiens, NCI-H929, 48 h).

Regarding `COc1ccccc1CC(Oc1ncnc2sc(-c3ccco3)c(-c3ccc(OCC4CCCN4C)c(Cl)c3C)c12)C(=O)O` [Example 299, (2R)-2-{[(5Sa)-5-(3-chloro-2-methyl-4-{[(2R)-1-methylpyrrolidin-2-yl]methoxy}phenyl)-6-(furan-2-yl)thieno[2,3-d]pyrimidin-4-yl]oxy}-3-(2-methoxyphenyl)propanoic acid], the IC50 on Mcl-1 protein came to 1.6e-08 M; in assay [1], 1.03 µM.

For `COc1ccccc1CC(Oc1ncnc2sc(-c3ccco3)c(-c3ccc(OC4CCN(C)C4)c(Cl)c3C)c12)C(=O)O` [Example 303, (2R)-2-{[(5Sa)-5-{3-chloro-2-methyl-4-[(1-methylpyrrolidin-3-yl)oxy]phenyl}-6-(furan-2-yl)thieno[2,3-d]pyrimidin-4-yl]oxy}-3-(2-methoxyphenyl)propanoic acid], the half-inhibitory concentration (IC50) was determined as 9.3e-09 M at Mcl-1 protein and 0.998 µM in assay [1] (Homo sapiens, NCI-H929, 48 h).

As for `COc1ccccc1CC(Oc1ncnc2sc(-c3ccco3)c(-c3ccc(OC4CCN(C)CC4)c(Cl)c3C)c12)C(=O)O` [Example 304, (2R)-2-{[(5Sa)-5-{3-chloro-2-methyl-4-[(1-methylpiperidin-4-yl)oxy]phenyl}-6-(furan-2-yl)thieno[2,3-d]pyrimidin-4-yl]oxy}-3-(2-methoxyphenyl)propanoic acid], the IC50 was determined as 1.1e-08 M at Mcl-1 protein and 1.7 µM in assay [1] (Homo sapiens, NCI-H929, 48 h).

For the compound `COc1ccccc1CC(Oc1ncnc2sc(-c3ccco3)c(-c3ccc(OCC4CCN(C)C4)c(Cl)c3C)c12)C(=O)O` [Example 310, (2R)-2-{[(5Sa)-5-{3-chloro-2-methyl-4-[(1-methylpyrrolidin-3-yl)methoxy]phenyl}-6-(furan-2-yl)thieno[2,3-d]pyrimidin-4-yl]oxy}-3-(2-methoxyphenyl)propanoic acid], the IC50 is 1.4e-08 M at Mcl-1 protein and 0.26 µM in assay [1] (Homo sapiens, NCI-H929, 48 h).

On to `COc1ccccc1CC(Oc1ncnc2sc(-c3ccco3)c(-c3ccc(OCC4CCN(C)CC4)c(Cl)c3C)c12)C(=O)O` [Example 311, (2R)-2-{[(5Sa)-5-{3-chloro-2-methyl-4-[(1-methylpiperidin-4-yl)methoxy]phenyl}-6-(furan-2-yl)thieno[2,3-d]pyrimidin-4-yl]oxy}-3-(2-methoxyphenyl)propanoic acid], for which the IC50 was 1.5e-08 M at Mcl-1 protein and 1.59 µM in assay [1] (Homo sapiens, NCI-H929, 48 h).

For `COCCN1CCC(COc2ccc(-c3c(-c4ccco4)sc4ncnc(OC(Cc5ccccc5OC)C(=O)O)c34)c(C)c2Cl)C1` [Example 312, (2R)-2-{[(5Sa)-5-(3-chloro-4-{[1-(2-methoxyethyl)pyrrolidin-3-yl]methoxy}-2-methylphenyl)-6-(furan-2-yl)thieno[2,3-d]pyrimidin-4-yl]oxy}-3-(2-methoxyphenyl)propanoic acid], the half-inhibitory concentration (IC50) at Mcl-1 protein turned out to be 8.9e-09 M; in assay [1] (Homo sapiens, NCI-H929, 48 h), 1 µM.

The IC50 is the point on the concentration scale where inhibition reaches its midpoint.
